Laboratory results published in ChEMBL document CHEMBL5579851, “Synthesis and antifungal evaluation of novel triazole derivatives bearing a pyrazole-methoxyl moiety” (Eur J Med Chem, 2024).
≈ marks a conversion by molar mass, not a printed value.

How the values were obtained:
[1] = test system: Candida albicans; test: Antifungal activity against Candida albicans SC5314 assessed as inhibition of fungal growth incubated for 48 hrs by CLSI based broth microdilution assay; format: functional
[2] = test system: Candida albicans; test: Antifungal activity against Candida albicans 10231 assessed as inhibition of fungal growth incubated for 48 hrs by CLSI based broth microdilution assay; format: functional
[3] = test system: Cryptococcus neoformans; test: Antifungal activity against Cryptococcus neoformans 32609 assessed as inhibition of fungal growth incubated for 72 hrs by CLSI based broth microdilution assay; format: functional
[4] = test system: Nakaseomyces glabratus; test: Antifungal activity against Candida glabrata 537 assessed as inhibition of fungal growth incubated for 48 hrs by CLSI based broth microdilution assay; format: functional
[5] = test system: Candida parapsilosis; test: Antifungal activity against Candida parapsilosis 22019 assessed as inhibition of fungal growth incubated for 48 hrs by CLSI based broth microdilution assay; format: functional; details: Lodderomyces parapsilosis
[6] = test system: Pichia kudriavzevii; test: Antifungal activity against Candida krusei 4996 assessed as inhibition of fungal growth incubated for 48 hrs by CLSI based broth microdilution assay; format: functional
[7] = test system: Candida tropicalis; test: Antifungal activity against Candida tropicalis 8915 assessed as inhibition of fungal growth incubated for 48 hrs by CLSI based broth microdilution assay; format: functional
[8] = test system: Candida albicans; test: Antifungal activity against fluconazole-resistant Candida albicans 901 assessed as inhibition of fungal growth incubated for 48 hrs by CLSI based broth microdilution assay; format: functional
[9] = test system: Candida albicans; test: Antifungal activity against fluconazole-resistant Candida albicans 904 assessed as inhibition of fungal growth incubated for 48 hrs by CLSI based broth microdilution assay; format: functional
[10] = test system: [Candida] auris; test: Antifungal activity against fluconazole-resistant Candida auris 891 assessed as inhibition of fungal growth incubated for 48 hrs by CLSI based broth microdilution assay; format: functional; details: Candidozyma auris
[11] = test system: [Candida] auris; test: Antifungal activity against fluconazole-resistant Candida auris 918 assessed as inhibition of fungal growth incubated for 48 hrs by CLSI based broth microdilution assay; format: functional; details: Candidozyma auris
[12] = test system: [Candida] auris; test: Antifungal activity against fluconazole-resistant Candida auris 919 assessed as inhibition of fungal growth incubated for 48 hrs by CLSI based broth microdilution assay; format: functional; details: Candidozyma auris
[13] = test system: Candida tropicalis; test: Potency index, ratio of ravuconazole MIC to test compound MIC for antifungal activity against Candida tropicalis 8915 assessed as inhibition of fungal growth incubated for 48 hrs by CLSI based broth microdilution assay; format: functional
[14] = test system: Candida tropicalis; test: Potency index, ratio of fluconazole MIC to test compound MIC for antifungal activity against Candida tropicalis 8915 assessed as inhibition of fungal growth incubated for 48 hrs by CLSI based broth microdilution assay; format: functional
[15] = test system: Saccharomyces cerevisiae; test: Antifungal activity against recombinant Saccharomyces cerevisiae Y525 overexpressing CaMdr1 assessed as inhibition of fungal growth incubated for 48 hrs by CLSI based broth microdilution assay; format: functional
[16] = test system: Saccharomyces cerevisiae; test: Antifungal activity against recombinant Saccharomyces cerevisiae Y570 overexpressing CaCdr1 assessed as inhibition of fungal growth incubated for 48 hrs by CLSI based broth microdilution assay; format: functional
[17] = test system: Saccharomyces cerevisiae; test: Antifungal activity against recombinant Saccharomyces cerevisiae Y2765 overexpressing CauMdr1 assessed as inhibition of fungal growth incubated for 48 hrs by CLSI based broth microdilution assay; format: functional
[18] = test system: Saccharomyces cerevisiae; test: Antifungal activity against recombinant Saccharomyces cerevisiae Y2766 overexpressing CauCdr1 assessed as inhibition of fungal growth incubated for 48 hrs by CLSI based broth microdilution assay; format: functional
[19] = test system: Saccharomyces cerevisiae; test: Antifungal activity against recombinant Saccharomyces cerevisiae Y2411 overexpressing ScErg11 assessed as inhibition of fungal growth incubated for 48 hrs by CLSI based broth microdilution assay; format: functional
[20] = test system: Saccharomyces cerevisiae; test: Antifungal activity against recombinant Saccharomyces cerevisiae Y2300 overexpressing ScErg11 assessed as inhibition of fungal growth incubated for 48 hrs by CLSI based broth microdilution assay; format: functional
[21] = test system: Saccharomyces cerevisiae; test: Antifungal activity against recombinant Saccharomyces cerevisiae Y2462 overexpressing ScErg11/ScNcp1 assessed as inhibition of fungal growth incubated for 48 hrs by CLSI based broth microdilution assay; format: functional
[22] = test system: Saccharomyces cerevisiae; test: Antifungal activity against recombinant Saccharomyces cerevisiae Y2459 overexpressing CaErg11/CaCpr assessed as inhibition of fungal growth incubated for 48 hrs by CLSI based broth microdilution assay; format: functional
[23] = test system: Saccharomyces cerevisiae; test: Antifungal activity against recombinant Saccharomyces cerevisiae Y2374 overexpressing CgErg11 assessed as inhibition of fungal growth incubated for 48 hrs by CLSI based broth microdilution assay; format: functional
[24] = test system: Saccharomyces cerevisiae; test: Antifungal activity against recombinant Saccharomyces cerevisiae Y2721 overexpressing CpErg11/CpCpr assessed as inhibition of fungal growth incubated for 48 hrs by CLSI based broth microdilution assay; format: functional
[25] = test system: Saccharomyces cerevisiae; test: Antifungal activity against recombinant Saccharomyces cerevisiae Y2767 overexpressing CauErg11 assessed as inhibition of fungal growth incubated for 48 hrs by CLSI based broth microdilution assay; format: functional
[26] = test system: Saccharomyces cerevisiae; test: Antifungal activity against recombinant Saccharomyces cerevisiae Y2711 overexpressing CnErg11 assessed as inhibition of fungal growth incubated for 48 hrs by CLSI based broth microdilution assay; format: functional
[27] = test system: Saccharomyces cerevisiae; test: Antifungal activity against recombinant Saccharomyces cerevisiae Y2301 overexpressing ScErg11 Y140F mutant assessed as inhibition of fungal growth incubated for 48 hrs by CLSI based broth microdilution assay; format: functional
[28] = test system: Saccharomyces cerevisiae; test: Antifungal activity against recombinant Saccharomyces cerevisiae Y2513 overexpressing ScErg11 Y140H mutant assessed as inhibition of fungal growth incubated for 48 hrs by CLSI based broth microdilution assay; format: functional
[29] = test system: Saccharomyces cerevisiae; test: Antifungal activity against recombinant Saccharomyces cerevisiae Y2716 overexpressing CpErg11 Y132F mutant/ CpCpr assessed as inhibition of fungal growth incubated for 48 hrs by CLSI based broth microdilution assay; format: functional
[30] = test system: Saccharomyces cerevisiae; test: Antifungal activity against recombinant Saccharomyces cerevisiae Y2768 overexpressing CauErg11 T132F mutant assessed as inhibition of fungal growth incubated for 48 hrs by CLSI based broth microdilution assay; format: functional
[31] = test system: Saccharomyces cerevisiae; test: Antifungal activity against recombinant Saccharomyces cerevisiae Y2769 overexpressing CauErg11 K143R mutant assessed as inhibition of fungal growth incubated for 48 hrs by CLSI based broth microdilution assay; format: functional
[32] = Cytotoxicity against HUVEC cells assessed as cell viability at 128 ug/ml incubated for 24 hrs by CCK-8 assay relative to control; format: toxicity, cell-based; details: human, at 128 µg/mL, read-out: Activity

Row | SMILES | MIC [1] [µg/mL] | MIC [2] [µg/mL] | MIC [3] [µg/mL] | MIC [15] [µg/mL] | MIC [16] [µg/mL] | MIC [17] [µg/mL] | MIC [18] [µg/mL] | MIC [19] [µg/mL] | MIC [20] [µg/mL] | MIC [21] [µg/mL] | MIC [22] [µg/mL] | MIC [23] [µg/mL] | MIC [24] [µg/mL] | MIC [25] [µg/mL] | MIC [26] [µg/mL] | MIC [27] [µg/mL] | MIC [28] [µg/mL] | MIC [29] [µg/mL] | MIC [30] [µg/mL] | MIC [31] [µg/mL] | also measured
1 | C[C@@H](OCc1ccn(Cc2ccc(Br)cc2)n1)[C@](O)(Cn1cncn1)c1ccc(F)cc1F | ≤ 0.125 | ≤ 0.125 | 0.25 (≈ 0.482 µM) |  |  |  |  |  |  |  |  |  |  |  |  |  |  |  |  |  | MIC [4]: ≤ 0.125 µg/mL; MIC [5]: 0.25 µg/mL (≈ 0.482 µM); MIC [6]: 2 µg/mL (≈ 3.86 µM); MIC [7]: 0.25 µg/mL (≈ 0.482 µM); MIC [8]: 32 µg/mL (≈ 61.7 µM); MIC [9]: 16 µg/mL (≈ 30.9 µM); MIC [10]: 16 µg/mL (≈ 30.9 µM); MIC [11]: 8 µg/mL (≈ 15.4 µM); MIC [12]: 8 µg/mL (≈ 15.4 µM); Ratio [13]: 32; Ratio [14]: 256
2 | CC(=O)N1CCN(c2ccc(OCC3COC(Cn4ccnc4)(c4ccc(Cl)cc4Cl)O3)cc2)CC1 (stereo not given) [KETOCONAZOLE] |  |  |  | 0.25 | 64 | 0.25 | 8 | 0.25 | 1 | 1 | 0.5 | 0.5 | 0.5 | 0.5 | 8 | 2 | 1 | 2 | 1 | 1 | 
3 | CC[C@@H]([C@H](C)O)n1ncn(-c2ccc(N3CCN(c4ccc(OC[C@@H]5CO[C@@](Cn6cncn6)(c6ccc(F)cc6F)C5)cc4)CC3)cc2)c1=O [POSACONAZOLE] |  |  |  | 0.125 | 8 | 0.125 | 0.125 | 0.5 | 1 | 0.125 | 0.125 | 0.125 | 0.25 | 0.063 | 0.0313 | 2 | 2 | 1 | 1 | 1 | 
4 | C[C@@H](c1ncncc1F)[C@](O)(Cn1cncn1)c1ccc(F)cc1F [VORICONAZOLE] |  |  |  | 0.5 | 8 | 1 | 2 | 0.008 | 0.0313 | 0.063 | 0.016 | 0.0313 | 0.0313 | 0.0313 | 0.008 | 0.0313 | 0.0313 | 0.25 | 0.25 | 0.063 | 
5 | C[C@@H](c1nc(-c2ccc(C#N)cc2)cs1)[C@](O)(Cn1cncn1)c1ccc(F)cc1F [RAVUCONAZOLE] | ≤ 0.125 | ≤ 0.125 | ≤ 0.125 | 0.063 | 16 | 0.016 | 2 | 0.008 | 0.008 | 0.008 | 0.008 | 0.008 | 0.008 | 0.016 | 0.008 | 0.016 | 0.008 | 0.008 | 0.008 | 0.008 | MIC [4]: ≤ 0.125 µg/mL; MIC [5]: ≤ 0.125 µg/mL; MIC [6]: 1 µg/mL (≈ 2.29 µM); MIC [7]: 8 µg/mL (≈ 18.3 µM); MIC [8]: 16 µg/mL (≈ 36.6 µM); MIC [9]: 16 µg/mL (≈ 36.6 µM); MIC [10]: 1 µg/mL (≈ 2.29 µM); MIC [11]: 1 µg/mL (≈ 2.29 µM); MIC [12]: 1 µg/mL (≈ 2.29 µM)
6 | C[C@@H]1[C@H](O)[C@@H](C)/C=C/C=C/C=C/C=C/C=C/C=C/C=C/[C@H](O[C@@H]2O[C@H](C)[C@@H](O)[C@H](N)[C@@H]2O)C[C@@H]2O[C@](O)(C[C@@H](O)C[C@@H](O)[C@H](O)CC[C@@H](O)C[C@@H](O)CC(=O)O[C@H]1C)C[C@H](O)[C@H]2C(=O)O [AMPHOTERICIN B] |  |  |  |  |  |  |  |  |  |  |  |  |  |  |  |  |  |  |  |  | viability at 24 h, 128 ug/ml [32]: 30.5%
